In the first assay the target is T1, α-chymotrypsin (bovine pancreatic) (Bos taurus, UniProt P00766).
T1 construct: native enzyme from bovine pancreas, commercial, used as received
Briefly: chromogenic protease inhibition assay, absorbance at […] nm. In kind it is biochemical. Particulars: 100 μM SAAPFpNA, 6 nM enzyme, 80 mM Tris-HCl pH 7.8, 10 mM CaCl2, 25 °C, 30 min preincubation, 3% DMSO.
Turning to `CC(C)=C1C[C@@H]2[C@@H](CCC(C)(C(=O)NC3CCCCC3)N(Cc3ccccc3)C(=O)CCl)[C@]2(C)CC1=O` (mixture of isomers) [compound 4, Ugi adduct 4], the “% Inhibition (10 μM)^a” value is given as 3.1 ± 0.9%.
Same read-out and setting: the value for `CC(=O)N(Cc1ccccc1)C(C)(CC[C@@H]1[C@H]2CC(=C(C)C)C(=O)C[C@@]12C)C(=O)NC1CCCCC1` (mixture of isomers) [compound 5, Ugi adduct 5] was 4.2 ± 1.7%; that for `CC(=O)N(Cc1ccccc1)C(CC(C)CCC=C(C)C)C(=O)NCS(=O)(=O)c1ccc(C)cc1` (racemic) [compound 2, Ugi adduct 2] was 9.2 ± 1.6%.

The next assay concerns the target T1, α-chymotrypsin (bovine pancreatic). Briefly: biochemical.
Details: not given
Also noted: alpha-chymotrypsin inhibition, SAAPFpNA (100 uM) hydrolysis, absorbance at 410 nm, 25 °C, pH 7.8. The protocol: Bovine pancreatic α-chymotrypsin was purchased from Sigma-Aldrich (C4129) and used as received. Enzyme solutions were kept on ice during the experiments. The molecular mass of α-chymotrypsin was taken as 25 kDa. N-Succinyl-L-alanine-L-alanine-L-proline-L-phenylalanine-p-nitroanilide (SAAPFpNA) was purchased from Sigma-Aldrich (S7388), prepared as a 10 mM stock solution in DMSO, and stored at − 30 °C. A microbial chymostatin, a mixture of chymostatin A–C, was purchased from Peptide Institute (4063) and used as a positive control. DMSO for biochemical research was purchased from Nacalai and used as received. Other reagents were purchased from Nacalai and used as received. The concentration–response curves were plotted and IC50 values were calculated by GraphPad Prism 8 software using a sigmoidal concentration–response curve analysis with variable slope. Absorbance was measured with a JASCO V-660 spectrometer at 25 °C. According to the reported procedure, the assay was performed in Tris–HCl buffer (80 mM, pH 7.8) containing α-chymotrypsin (6 nM, final concentration) and CaCl2 (10 mM, final concentration). After 30 min of incubation with the test compound at 25 °C, the enzymatic reaction was initiated by adding SAAPFpNA (100 μM, final concentration) to give a final volume of 700 μL. Reaction progress was monitored by absorbance at 410 nm at 25 °C for 5 min. The final concentration of DMSO was 3% (v/v). The prepared Ugi adducts have a diamide motif and were therefore subjected to a protease inhibition assay. Protease inhibitors have received increasing attention for their therapeutic potential against respiratory virus infections including severe acute respiratory syndrome coronavirus 2 (SARS-CoV-2)[34],[35]. The inhibitory activity of the Ugi adducts was determined in the presence of 6 nM α-chymotrypsin and 100 μM succinyl-Ala-Ala-Pro-Phe-p-nitroanilide[36]. […] Thus, the proposed engineering method, although preliminary, can be used to create novel candidates for α-chymotrypsin inhibitors. Further structural optimization, such as removal of the benzyl group on the amide nitrogen, construction of a dipeptide motif, and installation of an aromatic amino acid residue at the C-terminal of dipeptides[37] will improve the inhibitory activities of the Ugi adducts and will be reported in due course. The molecular weights of the synthesized plant product-like molecules were in the range of 492.70–1011.57 g mol^−1, which corresponds to the category of beyond the rule of five (bRo5)[38], or middle-molecules. Therefore, the present chemical hybridization method could be used to construct a small library of middle-molecules mimicking natural products, which is useful for the discovery of peptidic modulators of protein–protein interactions. Ongoing biological evaluations of the present molecules will unveil their specific pharmaceutical potential.
Take `Cc1ccc(S(=O)(=O)CNC(=O)C(c2ccccc2)N(Cc2ccccc2)C(=O)CCl)cc1` (stereo not shown) [1a, N-Benzyl-2-chloro-N-(2-oxo-1-phenyl-2-((tosylmethyl)amino)ethyl)acetamide]: at 10 µM the inhibition was 4.7 ± 1.1%.
The same measure, in the same setting: the value for `O=C(NC1CCCCC1)C(c1ccccc1)N(Cc1ccccc1)C(=O)CCl` (stereo not shown) [1b, N-Benzyl-2-chloro-N-(2-(cyclohexylamino)-2-oxo-1-phenylethyl)acetamide] was 9.2 ± 2%; that for `CC(C)C(C(=O)NC1CCCCC1)N(Cc1ccccc1)C(=O)CCl` (stereo not shown) [1c, 2-(N-Benzyl-2-chloroacetamido)-N-cyclohexyl-3-methylbutanamide] was 4.4 ± 2%.
Same read-out and setting: with `CC1=C(C(C(=O)NC2CCCCC2)N(Cc2ccccc2)C(=O)CCl)C(C)(C)CCC1` (stereo not shown) [1d, N-Benzyl-2-chloro-N-(2-(cyclohexylamino)-2-oxo-1-(2,6,6-trimethylcyclohex-1-en-1-yl)ethyl)acetamide] the figure was 8.9 ± 2.1%; with `O=C(CCl)N(Cc1ccccc1)C1(C(=O)NC2CCCCC2)CCCC1` [1e, 1-(N-Benzyl-2-chloroacetamido)-N-cyclohexylcyclopentane-1-carboxamide], 0.2 ± 0.8%; with `Cc1ccc(S(=O)(=O)CNC(=O)C2(N(Cc3ccccc3)C(=O)CCl)CCCC2)cc1` [1f, 1-(N-Benzyl-2-chloroacetamido)-N-(tosylmethyl)cyclopentane-1-carboxamide], 7.1 ± 1%.
On to `O=C(NC1CCCCC1)C(c1ccccc1)N(C(=O)CCl)c1ccc2ccc3cccc4ccc1c2c34` (stereo not shown) [1g, 2-Chloro-N-(2-(cyclohexylamino)-2-oxo-1-phenylethyl)-N-(pyren-1-yl)acetamide], for which the IC50 (usually the midpoint of a concentration-inhibition curve) came out at 4.5 ± 0.3 µM and the inhibition – broadly, the drop in the measured response relative to a control, in per cent – at 10 µM was determined as 83.7 ± 1.8%.
In the case of `CC(=O)N(Cc1ccccc1)C(C(=O)NC1CCCCC1)c1ccccc1` (stereo not shown) [1h, 2-(N-Benzylacetamido)-N-cyclohexyl-2-phenylacetamide], the inhibition at 10 µM stood at 2.4 ± 1.6%.
On the same count and under the same terms, with `O=C(NC1CCCCC1)C(c1ccccc1)N(Cc1ccccc1)C(=O)C1CCCCC1` (stereo not shown) [1i, N-Benzyl-N-(2-(cyclohexylamino)-2-oxo-1-phenylethyl)cyclohexanecarboxamide] the figure was 3.8 ± 0.4%.
Molecule `CC(C)=CCCC(C)CC(C(=O)NC1CCCCC1)N(Cc1ccccc1)C(=O)CC[C@@H](C)[C@H]1CC[C@H]2[C@@H]3[C@@H](O)C[C@@H]4C[C@H](O)CC[C@]4(C)[C@H]3CC[C@]12C` (stereo partly drawn) [1j, 2-((R)-N-Benzyl-4-((3R,5S,7S,8R,9S,10S,13R,14S,17R)-3,7-dihydroxy-10,13-dimethylhexadecahydro-1H-cyclopenta[a]phenanthren-17-yl)pentanamido)-N-cyclohexyl-4,8-dimethylnon-7-enamide] showed a concentration for half-maximal inhibition (IC50) of 9.2 ± 0.8 µM and an inhibition at 10 µM of 62.3 ± 0.2%.

Still in this assay, the particulars now being: read-out: % Inhibition (10 μM).
For the molecule `Nc1ccc2ccc3cccc4ccc1c2c34` [1-Aminopyrene], the inhibition at 10 µM is 5.6 ± 1%.
Still for that read-out and setting: the value for `CCCCCC[C@@H](O)C/C=C\CCCCCCCC(=O)O` [(R)-Ricinoleic acid] was 3 ± 0.9%; that for `NCc1ccccc1` [Benzylamine] was 7 ± 1.4%; that for `CC(=O)CC[C@@H]1[C@H]2CC(=C(C)C)C(=O)C[C@@]12C` [Curcumenone (6)] was 7.8 ± 1.2%.
Same read-out and setting: the value for `[C-]#[N+]CS(=O)(=O)c1ccc(C)cc1` [TosMIC] was 0.5 ± 0.5%.

For a further assay the target is unchanged. Briefly: chromogenic protease inhibition assay, absorbance at […] nm.
Details: not given
Format: biochemical.
As for `CCCCCC[C@@H](O)C/C=C\CCCCCCCC(=O)N(Cc1ccccc1)C(C)(CC[C@@H]1[C@H]2CC(=C(C)C)C(=O)C[C@@]12C)C(=O)NC1CCCCC1` (mixture of isomers) [compound 10, Ugi adduct 10], inhibition was half-maximal at 7.7 ± 0.6 µM (IC50).
Still for that read-out and setting: with `CCCCCC[C@@H](O)C/C=C\CCCCCCCC(=O)N(Cc1ccccc1)C(CC(C)CCC=C(C)C)C(=O)NC1CCCCC1` (stereo partly shown) [8a, Ugi adduct 8a] the figure was 7.3 ± 0.6 µM; with `CCCCCC[C@@H](O)C/C=C\CCCCCCCC(=O)O[C@@H](C/C=C\CCCCCCCC(=O)N(Cc1ccccc1)C(CC(C)CCC=C(C)C)C(=O)NC1CCCCC1)CCCCCC` (stereo partly shown) [8b, Ugi adduct 8b], 13.4 ± 1.3 µM.
Same read-out and setting: the value for `CC(C)=C1C[C@@H]2[C@@H](CCC(C)(C(=O)NC3CCCCC3)N(C(=O)CCl)c3ccc4ccc5cccc6ccc3c4c56)[C@]2(C)CC1=O` (stereo partly shown) [compound 7, Ugi adduct 7] was 3.1 ± 0.1 µM; that for `CCCCCC[C@@H](O)C/C=C\CCCCCCCC(=O)N(Cc1ccccc1)C(C(=O)NC1CCCCC1)c1ccccc1` (stereo partly shown) [compound 9, Ugi adduct 9] was 7.9 ± 0.5 µM.
